Measurements as given in ChEMBL document CHEMBL1201862, “PubChem BioAssay data set” (2004).
The source made the active and inactive calls.

Columns and labels:
[1] = M. tuberculosis growth inhibition, HTS (AID 449762); format: functional
[2] = biological target: Voltage-gated inwardly rectifying potassium channel KCNH2 (Homo sapiens, UniProt Q12809); test: concentration-dependent hERG rescue from blockers – cell-based, thallium flux, dose response (AID 2121); format: ADME
[3] = biological target: Luciferin 4-monooxygenase (Photinus pyralis, UniProt P08659); test: inhibition of purified Photinus pyralis luciferase – biochemical, luminescence, dose response (AID 1891)
Sequence of Luciferin 4-monooxygenase (P08659 whole entry): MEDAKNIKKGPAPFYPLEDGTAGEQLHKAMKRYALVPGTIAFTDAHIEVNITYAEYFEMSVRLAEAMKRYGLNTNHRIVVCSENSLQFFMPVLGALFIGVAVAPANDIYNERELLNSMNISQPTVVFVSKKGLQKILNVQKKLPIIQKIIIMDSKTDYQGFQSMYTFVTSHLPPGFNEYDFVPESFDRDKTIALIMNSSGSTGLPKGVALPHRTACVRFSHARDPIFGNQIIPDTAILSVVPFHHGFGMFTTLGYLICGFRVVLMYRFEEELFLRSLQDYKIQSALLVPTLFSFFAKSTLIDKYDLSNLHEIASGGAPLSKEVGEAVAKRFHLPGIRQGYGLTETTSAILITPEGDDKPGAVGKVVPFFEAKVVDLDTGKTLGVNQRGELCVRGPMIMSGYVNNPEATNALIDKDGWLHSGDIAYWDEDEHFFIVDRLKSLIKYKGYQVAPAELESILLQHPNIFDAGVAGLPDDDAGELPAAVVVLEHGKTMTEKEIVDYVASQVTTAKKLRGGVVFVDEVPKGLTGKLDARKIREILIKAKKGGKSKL

[4] = Luminescence Cell-Based Dose Confirmation HTS to Identify Inhibitors of Platelet Dense Granule Release. [Related pubchem assays: 1663 (Primary HTS), 1678 (Summary of Project)]; format: functional
[5] = Fluorescence Cell-Based Dose Response to Identify Inhibitors of Thrombin Receptor-Activating Peptide SFLLRN-Mediated P-Selectin Induction on Platelets. [Related pubchem assays: 1663 (Primary HTS), 1889 (retest at dose ), 1891 (counterscreen), 1678 (Project Summary)]; format: functional
[6] = biological target: T1, Mannose-6-phosphate isomerase (Homo sapiens, UniProt P34949); test: MPI enzyme activity inhibition – biochemical, fluorescence intensity, coupled assay, primary screen (AID 1209)
T1 sequence (P34949 whole entry): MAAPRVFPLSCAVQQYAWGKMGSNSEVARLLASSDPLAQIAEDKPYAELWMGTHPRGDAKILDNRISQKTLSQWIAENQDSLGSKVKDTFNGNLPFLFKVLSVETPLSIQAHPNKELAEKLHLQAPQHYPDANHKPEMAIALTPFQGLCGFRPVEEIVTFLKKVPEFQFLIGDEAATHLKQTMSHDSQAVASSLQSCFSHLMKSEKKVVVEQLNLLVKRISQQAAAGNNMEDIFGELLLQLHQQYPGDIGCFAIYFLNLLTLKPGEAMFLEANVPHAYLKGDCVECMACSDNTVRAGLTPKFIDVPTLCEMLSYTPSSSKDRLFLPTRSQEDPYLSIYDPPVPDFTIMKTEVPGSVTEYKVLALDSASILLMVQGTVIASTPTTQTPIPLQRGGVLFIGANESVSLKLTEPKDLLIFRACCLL

[7] = Luminescence Cell-Based Dose Confirmation HTS to Identify Activators of 5'UTR Stem-Loop Driven Alpha-Synuclein mRNA Translation in H4 Neuroglioblastoma Cells. [Related pubchem assays: 1829 (Project Summary), 1814 (Primary HTS)]; format: functional
[8] = Luminescence Cell-Based Dose Response HTS to Identify Activators of Luciferase Translation or Activity in H4 […] Cells. [Related pubchem assays: 1829 (Project Summary), 1814 (Primary HTS)]; format: functional
H4 = test: Luminescence Cell-Based Dose Response HTS to Identify Activators of 5'UTR Stem-Loop Driven Prion Protein mRNA Translation in H4 Neuroglioblastoma Cells. [Related pubchem assays: 1829 (Project Summary), 1814 (Primary HTS)]; format: functional; conditions: Homo sapiens
[9] = biological target: Heat shock protein HSP 90-alpha (Homo sapiens, UniProt P07900); test: Luminescence-based dose response biochemical high throughput screening assay for inhibitors of the Heat Shock Protein 90 (HSP90). [Related pubchem assays: 1831 (Summary AID.), 1846 (Confirmation screen.), 1789 (Primary screen.)]
Melanocortin receptor 4 = Melanocortin receptor 4 (Homo sapiens, UniProt P32245); test: inhibitors of MC4R cAMP signaling – cell-based, TR-FRET, biased antagonists, dose response (AID 602298); format: functional;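 also: antagonist potency against agonist-stimulated cAMP production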
Sequence of Melanocortin receptor 4 (P32245 whole entry): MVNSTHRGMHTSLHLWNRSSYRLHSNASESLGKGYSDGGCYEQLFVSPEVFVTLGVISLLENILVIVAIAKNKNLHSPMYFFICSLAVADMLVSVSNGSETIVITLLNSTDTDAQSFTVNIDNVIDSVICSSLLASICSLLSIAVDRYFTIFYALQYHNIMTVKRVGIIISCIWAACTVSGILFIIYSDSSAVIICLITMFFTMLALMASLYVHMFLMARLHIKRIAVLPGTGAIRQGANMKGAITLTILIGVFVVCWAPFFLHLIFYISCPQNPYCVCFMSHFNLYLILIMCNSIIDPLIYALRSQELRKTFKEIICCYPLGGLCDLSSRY

[10] = reduction of Shn3 3'UTR-driven luciferase in osteoblasts – cell-based, Clone20 osteoblasts, firefly luciferase, cherry-picked, dose response (AID 624132); format: functional;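 also: firefly luciferase luminescence from reporter carrying the Shn3 3'UTR in osteoblasts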
[11] = loss of viability in HepG2 cells – cell-based, CellTiter-Glo, cherry-picked, cytotoxicity control for Shn3 inhibitor project, dose response (AID 624134); format: functional
[12] = non-specific 3'UTR reporter inhibition in Clone20-Shn3RL – cell-based, Renilla luciferase, cherry-picked, counter-screen for Shn3 inhibitor project, dose response (AID 624133); format: functional
[13] = cAMP pathway inhibition in counterscreen cell line – TR-FRET cAMP detection, counter-screen for MC4R biased antagonist project, dose response (AID 602305); format: functional, cell-based;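 also: U2OS cells stimulated with forskolin near its EC80 as the cAMP inducer; potency is for inhibition of forskolin-stimulated cAMP signaling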
Paired box protein Pax-8 = Paired box protein Pax-8 (Homo sapiens, UniProt Q06710); test: PAX8 transcriptional activity inhibition in RMG-I – RMG-I cells, luciferase, cherry-pick, dose response (AID 687027); format: functional, cell-based;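 also: luciferase reporter driven by Pax8 target thyroperoxidase promoter measured by SteadyGlo luminescence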
Sequence of Paired box protein Pax-8 (Q06710 whole entry): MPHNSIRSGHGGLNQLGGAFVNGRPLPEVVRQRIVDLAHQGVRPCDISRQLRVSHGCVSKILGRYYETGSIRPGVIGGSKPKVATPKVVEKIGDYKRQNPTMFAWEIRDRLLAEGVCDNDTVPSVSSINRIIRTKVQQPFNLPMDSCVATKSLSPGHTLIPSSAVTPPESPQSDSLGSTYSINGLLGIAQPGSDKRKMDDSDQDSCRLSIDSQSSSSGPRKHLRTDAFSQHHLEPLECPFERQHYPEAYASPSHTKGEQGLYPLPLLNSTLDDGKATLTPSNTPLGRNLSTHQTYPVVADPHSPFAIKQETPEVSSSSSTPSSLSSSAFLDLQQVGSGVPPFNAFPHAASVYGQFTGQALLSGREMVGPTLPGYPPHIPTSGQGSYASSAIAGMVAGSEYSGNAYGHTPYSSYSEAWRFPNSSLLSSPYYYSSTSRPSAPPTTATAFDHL

[14] = viability loss in A549 lung cells – cell-based, 24 h, CellTiter-Glo luminescence, cherry-picks, cytotoxicity control, dose response (AID 1053115); format: functional; conditions: A549, 24 h
[15] = lung carcinoma cell viability loss – CellTiter-Glo luminescence, dry powder, set 17, dose response (AID 1117284); format: functional, cell-based; conditions: A549
[16] = biological target: 5-hydroxytryptamine receptor 1A (Homo sapiens, UniProt P08908); format: functional
Sequence of 5-hydroxytryptamine receptor 1A (P08908 whole entry): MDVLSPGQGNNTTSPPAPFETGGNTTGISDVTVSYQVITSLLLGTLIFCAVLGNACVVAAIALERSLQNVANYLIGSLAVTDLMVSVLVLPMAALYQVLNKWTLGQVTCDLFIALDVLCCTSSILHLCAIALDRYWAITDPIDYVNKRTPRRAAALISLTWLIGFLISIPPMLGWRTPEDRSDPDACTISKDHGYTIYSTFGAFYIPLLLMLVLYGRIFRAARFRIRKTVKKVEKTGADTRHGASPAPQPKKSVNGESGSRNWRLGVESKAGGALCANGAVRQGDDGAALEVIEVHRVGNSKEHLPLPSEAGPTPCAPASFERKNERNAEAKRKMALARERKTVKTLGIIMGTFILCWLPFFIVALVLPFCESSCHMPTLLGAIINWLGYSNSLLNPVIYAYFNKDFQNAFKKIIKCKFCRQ

Protein skinhead-1 = biological target: T2, Protein skinhead-1 (Caenorhabditis elegans, UniProt P34707); format: functional
T2 sequence (P34707 whole entry): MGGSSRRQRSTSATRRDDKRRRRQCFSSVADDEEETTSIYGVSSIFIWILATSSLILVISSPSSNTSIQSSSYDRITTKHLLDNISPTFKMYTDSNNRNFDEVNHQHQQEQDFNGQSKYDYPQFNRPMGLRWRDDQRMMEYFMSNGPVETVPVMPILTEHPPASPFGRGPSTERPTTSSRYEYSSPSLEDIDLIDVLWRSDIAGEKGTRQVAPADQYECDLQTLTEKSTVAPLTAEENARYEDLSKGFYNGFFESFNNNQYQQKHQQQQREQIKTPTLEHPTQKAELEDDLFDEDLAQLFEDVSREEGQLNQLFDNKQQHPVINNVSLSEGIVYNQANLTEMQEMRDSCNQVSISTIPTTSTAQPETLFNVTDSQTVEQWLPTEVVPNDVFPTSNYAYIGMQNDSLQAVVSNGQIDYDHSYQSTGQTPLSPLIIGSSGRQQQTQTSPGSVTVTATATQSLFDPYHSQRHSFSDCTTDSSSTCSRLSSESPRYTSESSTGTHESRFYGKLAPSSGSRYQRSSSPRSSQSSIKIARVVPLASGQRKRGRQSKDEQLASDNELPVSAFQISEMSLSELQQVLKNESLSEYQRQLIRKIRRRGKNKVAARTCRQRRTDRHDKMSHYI

[17] = viability of uninfected HEp-2 cells – cell-based, HTS, cytotoxicity control for RSV inhibitor project, dose response (AID 2410); format: functional; conditions: human respiratory syncytial virus
[18] = luciferase reporter signal suppression in cells – H4 neuroglioma cells, luminescence, dose response (AID 1990); format: functional, cell-based
[19] = Luminescence Cell-Based Dose Response HTS to Identify Inhibitors of 5'UTR Stem-Loop Driven Prion Protein mRNA Translation in H4 Neuroglioblastoma Cells. [Related pubchem assays: 1827 (Project Summary), 1813 (Primary HTS)]; format: functional
Vero = test: mammalian cell viability reduction – secondary assay, cytotoxicity control for West Nile virus antiviral project, dose response (AID 1650); format: functional; conditions: Chlorocebus sabaeus
[20] = alpha-synuclein stem-loop luciferase translation blockers – H4 neuroglioma cells, luminescence, confirmation (AID 1988); format: functional, cell-based
[21] = biological target: Sphingosine 1-phosphate receptor 1 (Homo sapiens, UniProt P21453); test: Cell-membrane dose response assay to identify antagonists of the Sphingosine 1-Phosphate receptor 1 (S1P1).; format: functional
Sequence of Sphingosine 1-phosphate receptor 1 (P21453 whole entry): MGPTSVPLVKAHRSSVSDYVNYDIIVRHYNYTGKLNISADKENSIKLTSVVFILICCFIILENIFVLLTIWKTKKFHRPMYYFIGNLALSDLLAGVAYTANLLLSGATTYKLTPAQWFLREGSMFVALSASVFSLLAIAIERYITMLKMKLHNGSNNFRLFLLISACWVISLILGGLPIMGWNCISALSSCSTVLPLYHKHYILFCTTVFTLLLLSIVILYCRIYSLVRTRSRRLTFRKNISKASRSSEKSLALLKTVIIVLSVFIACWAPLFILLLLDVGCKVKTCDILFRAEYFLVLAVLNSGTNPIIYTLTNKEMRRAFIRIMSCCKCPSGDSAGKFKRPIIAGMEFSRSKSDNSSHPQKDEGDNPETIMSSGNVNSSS

Galanin receptor type 2 = Galanin receptor type 2 (Homo sapiens, UniProt O43603); test: Dose Response cell-based high-throughput screening assay to identify antagonists of galanin receptor 2 (GALR2). [Related pubchem assays: 828, 866 ]; format: functional
Sequence of Galanin receptor type 2 (O43603 whole entry): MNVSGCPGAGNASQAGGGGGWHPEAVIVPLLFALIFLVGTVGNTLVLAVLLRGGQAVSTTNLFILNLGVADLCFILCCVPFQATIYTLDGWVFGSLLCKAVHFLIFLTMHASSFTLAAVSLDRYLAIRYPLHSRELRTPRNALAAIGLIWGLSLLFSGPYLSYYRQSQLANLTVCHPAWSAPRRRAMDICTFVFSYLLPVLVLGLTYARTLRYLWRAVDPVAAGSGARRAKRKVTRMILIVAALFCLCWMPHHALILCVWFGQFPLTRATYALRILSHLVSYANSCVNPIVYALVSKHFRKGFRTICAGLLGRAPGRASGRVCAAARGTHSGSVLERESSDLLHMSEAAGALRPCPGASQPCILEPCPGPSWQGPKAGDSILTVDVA

[22] = biological target: Bifunctional protein GlmU (Mycobacterium tuberculosis, UniProt P9WMN3); test: Inhibitors of Mycobacterial Glucosamine-1-phosphate acetyl transferase (GlmU). Secondary screen.; parameters: species or system Mycobacterium tuberculosis H37Rv
Sequence of Bifunctional protein GlmU (P9WMN3 whole entry): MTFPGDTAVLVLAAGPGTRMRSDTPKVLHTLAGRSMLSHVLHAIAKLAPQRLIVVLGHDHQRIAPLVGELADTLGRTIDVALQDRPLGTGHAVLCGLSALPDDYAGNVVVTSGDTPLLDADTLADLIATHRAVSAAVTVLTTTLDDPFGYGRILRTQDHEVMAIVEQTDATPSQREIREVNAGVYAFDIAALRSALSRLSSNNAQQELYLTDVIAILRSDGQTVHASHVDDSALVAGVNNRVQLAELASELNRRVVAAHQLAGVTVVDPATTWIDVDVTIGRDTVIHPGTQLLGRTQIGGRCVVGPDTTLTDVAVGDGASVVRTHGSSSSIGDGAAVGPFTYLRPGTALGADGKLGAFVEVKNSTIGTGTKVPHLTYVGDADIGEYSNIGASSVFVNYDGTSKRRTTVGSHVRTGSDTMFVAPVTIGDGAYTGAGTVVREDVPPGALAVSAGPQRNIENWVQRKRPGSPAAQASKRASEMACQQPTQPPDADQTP

[23] = biological target: T3, Neuropeptide Y receptor type 2 (Homo sapiens, UniProt P49146); test: IC50 for human NPY-Y2 blockade – cell-based, counter-screen for NPY-Y1 antagonist project, dose response (AID 1278); format: functional
T3 sequence (P49146 whole entry): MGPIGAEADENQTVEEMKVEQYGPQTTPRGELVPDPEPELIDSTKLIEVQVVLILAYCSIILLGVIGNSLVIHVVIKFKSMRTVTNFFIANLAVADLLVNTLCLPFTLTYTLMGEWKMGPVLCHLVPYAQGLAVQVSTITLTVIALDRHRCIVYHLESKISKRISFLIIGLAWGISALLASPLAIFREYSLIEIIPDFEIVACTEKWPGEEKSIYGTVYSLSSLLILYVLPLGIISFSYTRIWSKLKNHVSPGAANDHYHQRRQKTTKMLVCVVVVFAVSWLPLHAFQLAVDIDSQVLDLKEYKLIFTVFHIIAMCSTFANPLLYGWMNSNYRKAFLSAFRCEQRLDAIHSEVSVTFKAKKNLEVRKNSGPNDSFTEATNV

[24] = biological target: T4, Neuropeptide Y receptor type 1 (Homo sapiens, UniProt P25929); test: IC50 of human NPY-Y1 blockers – cell-based, dose response (AID 1277); format: functional
T4 sequence (P25929 whole entry): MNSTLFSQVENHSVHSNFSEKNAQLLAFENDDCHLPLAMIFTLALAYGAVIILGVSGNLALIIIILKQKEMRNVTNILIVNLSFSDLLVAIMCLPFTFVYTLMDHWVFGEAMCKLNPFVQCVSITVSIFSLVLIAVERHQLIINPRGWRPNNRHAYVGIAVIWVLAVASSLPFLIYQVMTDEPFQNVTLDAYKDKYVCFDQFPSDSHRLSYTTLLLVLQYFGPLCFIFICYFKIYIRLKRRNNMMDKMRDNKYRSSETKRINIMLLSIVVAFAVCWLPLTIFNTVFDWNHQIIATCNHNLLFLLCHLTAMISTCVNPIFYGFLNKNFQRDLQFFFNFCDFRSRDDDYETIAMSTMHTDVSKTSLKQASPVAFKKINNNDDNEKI

Sequence of Voltage-gated inwardly rectifying potassium channel KCNH2 (Q12809 whole entry): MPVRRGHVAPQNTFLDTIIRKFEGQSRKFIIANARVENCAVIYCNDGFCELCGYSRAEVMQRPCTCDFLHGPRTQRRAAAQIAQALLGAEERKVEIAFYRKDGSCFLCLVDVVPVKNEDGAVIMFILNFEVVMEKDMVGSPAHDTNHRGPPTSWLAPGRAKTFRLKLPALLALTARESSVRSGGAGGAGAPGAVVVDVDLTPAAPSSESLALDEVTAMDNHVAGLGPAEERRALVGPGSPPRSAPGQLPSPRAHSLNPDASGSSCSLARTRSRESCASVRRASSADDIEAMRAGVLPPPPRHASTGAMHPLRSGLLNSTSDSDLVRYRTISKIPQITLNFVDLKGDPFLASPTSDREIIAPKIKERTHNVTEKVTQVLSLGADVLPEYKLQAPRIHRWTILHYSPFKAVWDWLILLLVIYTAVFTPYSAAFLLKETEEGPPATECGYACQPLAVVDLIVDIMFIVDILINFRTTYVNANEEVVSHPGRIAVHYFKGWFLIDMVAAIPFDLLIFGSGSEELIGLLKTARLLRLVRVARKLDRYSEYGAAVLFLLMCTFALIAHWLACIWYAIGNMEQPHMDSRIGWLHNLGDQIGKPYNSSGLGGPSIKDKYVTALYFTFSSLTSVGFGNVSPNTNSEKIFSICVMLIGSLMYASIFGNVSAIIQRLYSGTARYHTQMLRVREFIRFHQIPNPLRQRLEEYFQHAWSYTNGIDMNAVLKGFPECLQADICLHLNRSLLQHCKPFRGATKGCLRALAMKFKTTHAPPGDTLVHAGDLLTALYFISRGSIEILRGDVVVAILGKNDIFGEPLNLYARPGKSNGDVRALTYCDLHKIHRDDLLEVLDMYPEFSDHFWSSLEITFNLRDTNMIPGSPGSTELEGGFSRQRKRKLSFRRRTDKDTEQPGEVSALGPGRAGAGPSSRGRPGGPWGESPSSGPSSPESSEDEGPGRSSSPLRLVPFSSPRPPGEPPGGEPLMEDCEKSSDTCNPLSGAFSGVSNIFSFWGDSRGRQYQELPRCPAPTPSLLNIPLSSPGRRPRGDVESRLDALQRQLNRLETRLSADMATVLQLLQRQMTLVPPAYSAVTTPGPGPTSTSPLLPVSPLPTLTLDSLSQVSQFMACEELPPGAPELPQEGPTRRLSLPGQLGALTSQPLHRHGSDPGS

Structure (SMILES): O=C1c2ccccc2C(=O)N1Nc1ccccc1
- IC50 [1]: > 100 µM (active)

Structure (SMILES): CC(C)CNC(=S)NC(=O)c1ccc(Cl)cc1
- EC50 [2]: 6.61 µM (active)

Structure (SMILES): O=C(Oc1ccc(Cl)cc1)c1ccc(COC(=O)c2cnccn2)cc1
- EC50 [3]: > 112 µM (not active)
- EC50 [4]: 7.27 µM (active)
- EC50 [5]: > 100 µM (not active)

Structure (SMILES): CC1(C(=O)CSc2nc[nH]n2)CCC(=O)O1 (stereo not given)
- IC50 [6]: > 50 µM (not active)

Structure (SMILES): Cc1nc(NC(=O)c2cccc(Cl)c2)sc1C(=O)N1CCCCC1
- EC50 [7]: 12.2 µM (active)
- EC50 [8]: 14.2 µM (active)
- EC50 (H4): 20.1 µM (active)
- IC50 [9]: 6.4 µM (active)

Structure (SMILES): C[C@H](O)C#Cc1ccc2c(c1)O[C@@H](CN(C)Cc1ccc(-c3ccccc3)cc1)[C@H](C)CN([C@@H](C)CO)S2(=O)=O
- IC50 (Melanocortin receptor 4): > 64.6 µM (inactive)
- AC50 [10]: 10.3 µM (active)
- AC50 [11]: 19.4 µM (active)
- AC50 [12]: 27.6 µM (active)
- IC50 [13]: > 64.6 µM (inactive)
- AC50 (Paired box protein Pax-8): 6.73 µM (active)
- AC50 [14]: 42.8 µM (active)
- AC50 [15]: 28.3 µM (active)

Structure (SMILES): O=C(COC(=O)CCC1CCCC1)Nc1ccc(Cl)cn1
- EC50 [16]: > 50 µM (not active)
- IC50 (Protein skinhead-1): > 100 µM (inactive)

Structure (SMILES): CC12CC[C@H]3[C@@H](CCC4(O)C[C@H](O)CCC34/C=N/NC(=O)c3ccccc3[N+](=O)[O-])C1(O)CCC2C1=CC(=O)OC1 (stereo not given in full)
- CC50 [17]: 12.9 µM (active)
- EC50 [18]: 11.2 µM (active)
- EC50 [19]: 11.9 µM (active)
- CC50 (Vero): 32 µM (active)
- EC50 [20]: 8.77 µM (active)

Structure (SMILES): CCCCCCc1cccc(NC(=O)[C@H](N)CCP(=O)(O)O)c1
- Ki [21]: 4.63 µM (active)

Structure (SMILES): CCn1c2ccc(C)cc2c2nc3cc(C(=O)O)ccc3nc21
- IC50 (Galanin receptor type 2): > 42 µM (not active)
- IC50 [22]: 191 µM (active)

Structure (SMILES): Cc1ccc(C)c(SCc2noc(C(=O)NCC3CCCO3)c2C(=O)O)c1 (stereo not given)
- IC50 [23]: 26.4 µM (not active)
- IC50 [24]: > 35 µM (not active)
